Ends that are not written are not given here.
Target: T1, LC3B K30R (Homo sapiens, UniProt Q9GZQ8, K30R)
T1 construct: modified Ub-leader (ubiquitin fusion leader) (N); made in house; host or cells: E. coli NEB T7 Express
Experiment: ITC titration of PLEKHM1-LIR peptide into LC3B K30R mutant
Format: binding
Experimental: The chimeric constructs were expressed as a His‐tag fusion protein in E. coli BL21(DE3) cells. The cells were induced with 0.3 mM IPTG at OD600 0.6 for 16 h at 26°C. The cell pellets were lysed using mechanical sonication in lysis buffer (20 mM Tris–HCl pH 9.0, 100 mM NaCl, 10 mM imidazole, supplemented with 0.1% Triton X‐100). The proteins were purified using Ni‐NTA beads (GE Healthcare) and the His‐tag was cleaved using thrombin (Invitrogen) at room temperature for 16 h. The last step was gel filtration chromatography using a Superdex S200/300 GL column (GE Healthcare). The proteins were concentrated using spin concentrators (Vivaspin). For ITC and NMR studies, the non‐labelled and stable isotopes labelled LC3 and GABARAP proteins were obtained based on the protocols described elsewhere 30, 39. Here, E. coli NEB T7 Express culture transformed with corresponding plasmids were grown till OD600 nm = 1.0 and protein expression was induced with 0.2 mM IPTG. The cultures were incubated at 25°C for 8–12 h before cell harvesting. Isolation and purification procedures were similar to those reported in Ref. 22, 40. Before experiments, all proteins and peptides were equilibrated with a buffer containing 50 mM Na2HPO4, 100 mM NaCl at pH 7.0, and supplied with 5 mM protease inhibitor cocktail.
The protocol for preparation of non‐labelled and ^13C,^15N‐labelled PLEKHM1‐LIR peptide was slightly modified to achieve highest yield of the peptide. The 50 ml M9 culture was inoculated with NEB T7 cell transformed with pET39_Ub63‐PLEKHM1‐LIR plasmid and grown overnight at 37°. The collected cells were resuspended in 2 l of either LB or M9 media contained 1.5 g ^15N‐labelled NH4Cl and 3.0 g of ^13C‐labelled glucose. The cultures were grown at 37° till A(600 nm) = 0.9 and supplied with 1 mM of IPTG to induce Ub63‐PLEKHM1‐LIR overexpression (3 h at 37°). After that cells were harvested by centrifugation, re‐suspended in buffer contained 50 mM Tris–HCl pH = 7.9, 200 mM NaCl, 5% glycerol, 0.1 mg/ml DNase A and 4 mM protease inhibitor cocktail. After cell lysis by French press, debris was removed by centrifugation and clear supernatant was applied onto the column contained Ni‐NTA Sepharose equilibrated with the loading buffer (50 mM Tris–HCl pH = 7.9, 250 mM NaCl, 1% glycerol and 20 mM imidazole). Elution was performed with 400 mM imidazole in the same buffer. An aliquot of pure Ub63‐PLEKHM1‐LIR fractions was further purified by gel filtration on Superdex75 26 × 60 column for control ITC and analytical size exclusion chromatography experiments, remaining fusion protein was processed with the TEV‐protease and PLEKHM1‐LIR peptide was purified to 95% purity by reverse Ni‐NTA chromatography and followed gel filtration on Superdex75 26 × 60 column. Peak maximum of peptide was detected at […] (void volume 115 ml). Pure peptide was concentrated in Amicon concentrators with cut‐off of 3 kDa (> 95% retention).
All titration experiments were performed at 25°C using a VP‐ITC microcalorimeter (Malvern Instruments Ltd, UK). The ITC data were analysed with the ITC‐Origin 7.0 software with a “one‐site” binding model. The peptides at concentrations of 0.4 mM were titrated into 0.020 mM LC3 and GABARAP proteins in 26 steps. The protein and peptide concentrations were calculated from the UV absorption at 280 nm by NanoDrop spectrophotometer (Thermo Fisher Scientific, DE, USA).

GAMGPQQEDEWVNVQYPD [PLEKHM1‐LIR WT]
-T*DS (25°C, pH 7.0, LC3B K30R): -1.08 kcal/mol | DG (ΔG) (25°C, pH 7.0, LC3B K30R): -7.20 kcal/mol | DH (ΔH) (25°C, pH 7.0, LC3B K30R): -6.1 ± 0.2 kcal/mol | DS (ΔS) (25°C, pH 7.0, LC3B K30R): +3.61 cal mol-1 K-1 | KA (25°C, pH 7.0, LC3B K30R): 0.19±0.01 *10^6 M-1 | N (25°C, pH 7.0, LC3B K30R): 1.11±0.02 | increase in favorable binding enthalpy vs wild type LC3B (within experimental error): 0.3 kcal/mol

— article PMC5538626, “Structural and functional analysis of the GABARAP interaction motif (GIM)” (EMBO Reports, 2017)
